Reference: BigSolDB 2.1

O=c1ccc2ccccc2o1
solubility (mole fraction)
Conditions	278.15 K	283.15 K	288.15 K	293.15 K	298.15 K	303.15 K	308.15 K	313.15 K	318.15 K
in cyclohexane	–	0.00162	0.00236	0.00321	0.00428	0.00607	0.00824	0.0111	0.0144
in ethanol	0.0071	0.011	0.0205	0.0331	0.0533	0.0869	0.138	0.222	0.357
in isopropanol	0.00371	0.00604	0.0108	0.0204	0.0351	0.0604	0.101	0.171	0.282
in methanol	0.012	0.0182	0.0303	0.05	0.0802	0.122	0.199	0.32	0.484
in n-hexane	0.000862	0.00118	0.00169	0.0024	0.00319	0.00421	0.00574	0.00746	0.00962
in n-propanol	0.00521	0.00952	0.0172	0.0282	0.0469	0.0781	0.124	0.202	0.33
